Test results reported in ChEMBL document CHEMBL1124001, “Synthesis and antileukemic activity of bis[[(carbamoyl)oxy]methyl]- substituted pyrrolo[2,1-a]isoquinolines, pyrrolo[1,2-a]quinolines, pyrrolo[2,1-a]isobenzazepines, and pyrrolo[1,2-a]benzazepines” (J Med Chem, 1988).

Tests used:
Mus musculus [1] = assay: Net log cell kill was determined after injecting 3.75 mg/kg intraperitoneally in CD2F1 mice; format: functional; details: route intraperitoneal
Mus musculus [2] = assay: Net log cell kill was determined after injecting 15 mg/kg intraperitoneally in CD2F1 mice; format: functional; details: route intraperitoneal
Mus musculus [3] = assay: Ratio of treated to that of untreated tumor-bearing control animals at 3.75 mg/kg intraperitoneally in CD2F1 mice was determined; format: functional; details: route intraperitoneal
Mus musculus [4] = assay: Body weight change of test animals to that of control was determined after injection at 7.5 mg/kg intraperitoneally in CD2F1 mice; format: functional; details: route intraperitoneal
Mus musculus [5] = assay: Toxicity day survivors was determined by the ratio of animals survived to that of test animals at 60 mg/kg intraperitoneally in CD2F1 mice; 4/6; format: organism-based; design: dose 60 mg/kg, route intraperitoneal; details: in vivo, ip
Mus musculus [6] = assay: Ratio of treated to that of untreated tumor-bearing control animals at 1.87 mg/kg intraperitoneally in CD2F1 mice was determined; format: functional; details: route intraperitoneal
Mus musculus [7] = assay: Toxicity day survivors was determined by the ratio of animals survived to that of test animals at 1.87 mg/kg intraperitoneally in CD2F1 mice; 6/6; format: organism-based; design: dose 1.87 mg/kg, route intraperitoneal; details: in vivo, ip
Mus musculus [8] = assay: Toxicity day survivors was determined by the ratio of animals survived to that of test animals at 7.5 mg/kg intraperitoneally in CD2F1 mice; 6/6; format: organism-based; design: dose 7.5 mg/kg, route intraperitoneal; details: in vivo, ip
Mus musculus [9] = assay: Toxicity day survivors was determined by the ratio of animals survived to that of test animals at 3.75 mg/kg intraperitoneally in CD2F1 mice; 6/6; format: organism-based; design: dose 3.75 mg/kg, route intraperitoneal; details: in vivo, ip
Mus musculus [10] = assay: Body weight change of test animals to that of control was determined after injection at 60 mg/kg intraperitoneally in CD2F1 mice; format: functional; details: route intraperitoneal
Mus musculus [11] = assay: Net log cell kill was determined after injecting 1.87 mg/kg intraperitoneally in CD2F1 mice; format: functional; details: route intraperitoneal
Mus musculus [12] = assay: Ratio of treated to that of untreated tumor-bearing control animals at 15 mg/kg intraperitoneally in CD2F1 mice was determined; format: functional; details: route intraperitoneal
Mus musculus [13] = assay: Body weight change of test animals to that of control was determined after injection at 15 mg/kg intraperitoneally in CD2F1 mice; format: functional; details: route intraperitoneal
Mus musculus [14] = assay: Ratio of treated to that of untreated tumor-bearing control animals at 7.5 mg/kg intraperitoneally in CD2F1 mice was determined; format: functional; details: route intraperitoneal
Mus musculus [15] = assay: Net log cell kill was determined after injecting 7.5 mg/kg intraperitoneally in CD2F1 mice; format: functional; details: route intraperitoneal
Mus musculus [16] = assay: Body weight change of test animals to that of control was determined after injection at 1.87 mg/kg intraperitoneally in CD2F1 mice; format: functional; details: route intraperitoneal
Mus musculus [17] = assay: Body weight change of test animals to that of control was determined after injection at 3.75 mg/kg intraperitoneally in CD2F1 mice; format: functional; details: route intraperitoneal
Mus musculus [18] = assay: Toxicity day survivors was determined by the ratio of animals survived to that of test animals at 15 mg/kg intraperitoneally in CD2F1 mice; 6/6; format: organism-based; design: dose 15 mg/kg, route intraperitoneal; details: in vivo, ip
Mus musculus [19] = assay: Body weight change of test animals to that of control was determined after injection at 240 mg/kg intraperitoneally in CD2F1 mice; format: functional; details: route intraperitoneal
Mus musculus [20] = assay: Ratio of treated to that of untreated tumor-bearing control animals at 240 mg/kg intraperitoneally in CD2F1 mice was determined; format: functional; details: route intraperitoneal
Mus musculus [21] = assay: Net log cell kill was determined after injecting 120 mg/kg intraperitoneally in CD2F1 mice; format: functional; details: route intraperitoneal
Mus musculus [22] = assay: Ratio of treated to that of untreated tumor-bearing control animals at 60 mg/kg intraperitoneally in CD2F1 mice was determined; format: functional; details: route intraperitoneal
Mus musculus [23] = assay: Ratio of treated to that of untreated tumor-bearing control animals at 120 mg/kg intraperitoneally in CD2F1 mice was determined; format: functional; details: route intraperitoneal
Mus musculus [24] = assay: Net log cell kill was determined after injecting 480 mg/kg intraperitoneally in CD2F1 mice; format: functional; details: route intraperitoneal
Mus musculus [25] = assay: Toxicity day survivors was determined by the ratio of animals survived to that of test animals at 60 mg/kg intraperitoneally in CD2F1 mice; 6/6; format: organism-based; design: dose 60 mg/kg, route intraperitoneal; details: in vivo, ip
Mus musculus [26] = assay: Toxicity day survivors was determined by the ratio of animals survived to that of test animals at 480 mg/kg intraperitoneally in CD2F1 mice; 6/6; format: organism-based; design: dose 480 mg/kg, route intraperitoneal; details: in vivo, ip
Mus musculus [27] = assay: Net log cell kill was determined after injecting 240 mg/kg intraperitoneally in CD2F1 mice; format: functional; details: route intraperitoneal
Mus musculus [28] = assay: Toxicity day survivors was determined by the ratio of animals survived to that of test animals at 240 mg/kg intraperitoneally in CD2F1 mice; 6/6; format: organism-based; design: dose 240 mg/kg, route intraperitoneal; details: in vivo, ip
Mus musculus [29] = assay: Toxicity day survivors was determined by the ratio of animals survived to that of test animals at 120 mg/kg intraperitoneally in CD2F1 mice; 6/6; format: organism-based; design: dose 120 mg/kg, route intraperitoneal; details: in vivo, ip
Mus musculus [30] = assay: Body weight change of test animals to that of control was determined after injection at 480 mg/kg intraperitoneally in CD2F1 mice; format: functional; details: route intraperitoneal
Mus musculus [31] = assay: Net log cell kill was determined after injecting 60 mg/kg intraperitoneally in CD2F1 mice; format: functional; details: route intraperitoneal
Mus musculus [32] = assay: Ratio of treated to that of untreated tumor-bearing control animals at 480 mg/kg intraperitoneally in CD2F1 mice was determined; format: functional; details: route intraperitoneal
Mus musculus [33] = assay: Body weight change of test animals to that of control was determined after injection at 120 mg/kg intraperitoneally in CD2F1 mice; format: functional; details: route intraperitoneal
Mus musculus [34] = assay: Body weight change of test animals to that of control was determined after injection at 30 mg/kg intraperitoneally in CD2F1 mice; format: functional; details: route intraperitoneal
Mus musculus [35] = species on record: Mus musculus; assay: Ratio of treated to that of untreated tumor-bearing control animals was determined; format: functional
Mus musculus [36] = assay: Net log cell kill was determined after injecting 30 mg/kg intraperitoneally in CD2F1 mice; format: functional; details: route intraperitoneal
Mus musculus [37] = assay: Ratio of treated to that of untreated tumor-bearing control animals 30 mg/kg intraperitoneally in CD2F1 mice was determined; format: functional; details: route intraperitoneal
Mus musculus [38] = assay: Toxicity day survivors was determined by the ratio of animals survived to that of test animals at 30 mg/kg intraperitoneally in CD2F1 mice; 6/6; format: organism-based; design: dose 30 mg/kg, route intraperitoneal; details: in vivo, ip

Row | Compound | KE (Mus musculus [2]) | T-C (Mus musculus [10]) [g] | T/C (Mus musculus [12]) [%] | T-C (Mus musculus [13]) [g] | TDS (Mus musculus [18]) | T-C (Mus musculus [19]) [g] | T/C (Mus musculus [20]) [%] | KE (Mus musculus [21]) | T/C (Mus musculus [23]) [%] | TDS (Mus musculus [25]) | KE (Mus musculus [27]) | TDS (Mus musculus [28]) | TDS (Mus musculus [29]) | KE (Mus musculus [31]) | T-C (Mus musculus [33]) [g] | further results
1 | CNC(=O)OCc1c(COC(=O)NC)c2n(c1C)-c1ccc(OC)cc1CCC2 | 0.27 | -2.8 | 144 | -1.2 | 6 |  |  |  |  |  |  |  |  |  |  | KE (Mus musculus [1]): -0.06; T/C (Mus musculus [3]): 135%; T-C (Mus musculus [4]): -1.3 g; TDS (Mus musculus [5]): 4; T/C (Mus musculus [6]): 125%; TDS (Mus musculus [7]): 6; TDS (Mus musculus [8]): 6; TDS (Mus musculus [9]): 6; KE (Mus musculus [11]): -0.74; T/C (Mus musculus [14]): 147%; KE (Mus musculus [15]): 0.55; T-C (Mus musculus [16]): -1 g; T-C (Mus musculus [17]): -1.6 g
2 | CC(C)NC(=O)OCc1cn2c(c1COC(=O)NC(C)C)-c1cc(Cl)c(Cl)cc1CC2 |  | -0.4 |  |  |  | -2.3 | 137 | -0.68 | 130 | 6 | 0.1 | 6 | 6 | -1.54 | -2.2 | T/C (Mus musculus [22]): 86%; KE (Mus musculus [24]): 5.05; TDS (Mus musculus [26]): 6; T-C (Mus musculus [30]): -3.6 g; T/C (Mus musculus [32]): 185%
3 | COc1ccc2c(ccc3c(COC(=O)NC(C)C)c(COC(=O)NC(C)C)c(C)n32)c1 | -1.47 | 0.1 | 109 | -0.1 | 6 | -3.5 | 154 | -0.12 | 131 | 6 | 1.19 | 6 | 6 | -0.3 | -0.6 | T-C (Mus musculus [34]): 0 g; T/C (Mus musculus [35]): 128%; KE (Mus musculus [36]): -0.42; T/C (Mus musculus [37]): 112%; TDS (Mus musculus [38]): 6
